Assay results from US6552060B1, “Asymmetric disulfides and methods of using same” (Prolx Pharmaceuticals, Inc., priority 1997, dated 2003).

Target: T1, TR/Trx (Homo sapiens, UniProt Q16881)
T1 sequence (Q16881 1-499 isoform Q16881-5): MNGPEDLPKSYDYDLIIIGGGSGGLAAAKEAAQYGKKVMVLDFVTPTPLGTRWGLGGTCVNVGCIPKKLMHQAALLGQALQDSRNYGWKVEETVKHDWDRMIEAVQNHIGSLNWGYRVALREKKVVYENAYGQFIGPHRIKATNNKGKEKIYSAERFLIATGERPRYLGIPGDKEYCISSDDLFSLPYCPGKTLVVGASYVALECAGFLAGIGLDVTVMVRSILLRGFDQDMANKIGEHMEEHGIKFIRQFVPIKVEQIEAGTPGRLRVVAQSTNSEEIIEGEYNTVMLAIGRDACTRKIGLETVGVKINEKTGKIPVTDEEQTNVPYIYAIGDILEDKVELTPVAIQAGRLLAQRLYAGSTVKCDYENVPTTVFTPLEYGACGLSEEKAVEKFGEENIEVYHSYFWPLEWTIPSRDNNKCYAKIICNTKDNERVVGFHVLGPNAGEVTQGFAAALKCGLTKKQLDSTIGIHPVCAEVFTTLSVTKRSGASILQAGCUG
Test: Thioredoxin dependent reduction of insulin by human thioredoxin reductase and NADPH (IC50 TR/Trx, 96 well)
Format: biochemical
Conditions: Table 3; read-out: IC50 TR/Trx (converted)
Text: When referring to the particular system being analyzed IC50 is typically followed by an abbreviation referring to that system (i.e., IC50 TR/Trx for the above described thioredoxin redox system which is comprised of thioredoxin reductase and thioredoxin).
A second plate was used for the assessment of biological activity or as a biological screen. Aliquots of disulfides dissolved in DMSO, were be transferred into 96 well plates. The assay to assess their ability to inhibit thioredoxin reductase measures the thioredoxin dependent reduction of insulin by human thioredoxin reductase and NADPH. The effects of the disulfides on the reduction of Trx by TR were measured spectrophotometrically by following the reduction of NADPH at 339 nm with insulin as the final electron acceptor in a buffered mixture of TR, Trx, NADPH and insulin.

Structure (SMILES)	IC50
CC(C)CSSc1ncccc1C(=O)O [Compound G-23]	57.5 µM

Same assay, conditions: Table 4

Structure (SMILES)	Disulfide inhibition of TR/Trx (IC50 TR/Trx)
CCCCSSc1ncnc2[nH]cnc12 [Compound C-7]	33 µg/mL
CC(SSc1nc2ccccc2[nH]1)c1ccccc1 (centres unmarked) [Compound J-8]	8 µg/mL
CCSSc1nccc(C)n1 [Compound A-24]	90 µg/mL
CCCSSc1nnc(C)s1 [Compound B-3]	85 µg/mL
Sc1nnc(SSCc2ccccc2)s1 [Compound I-4]	5 µg/mL
CC(C)CSSCc1ccccc1 [Compound G-19]	>189 µg/mL
CC(SSc1nc2cc([N+](=O)[O-])ccc2[nH]1)c1ccccc1 (centres unmarked) [Compound J-10]	43 µg/mL
COc1cccc(CSSC(C)c2ccccc2)c1 (centres unmarked) [Compound J-20]	74 µg/mL
CC(SSCc1ccccc1)c1ccccc1 (centres unmarked) [Compound J-19]	>232 µg/mL
Cc1nnc(SSCC(C)C)s1 [Compound G-3]	29 µg/mL
CCCCSSc1nc2ccccc2[nH]1 [Compound C-8]	57 µg/mL
Cc1ccc2[nH]c(SSC(C)c3ccccc3)nc2c1 (centres unmarked) [Compound J-9]	43 µg/mL
CCCCSSc1nccc(C)n1 [Compound C-24]	48 µg/mL
CCCSSc1nnc(S)s1 [Compound B-4]	35 µg/mL
CC(SSc1nc2ccccc2o1)c1ccccc1 (centres unmarked) [Compound J-12]	16 µg/mL
CC(SSc1ncccc1C(=O)O)c1ccccc1 (centres unmarked) [Compound J-23]	89 µg/mL
CCCCSSc1nc(N)nc2[nH]cnc12 [Compound C-6]	33 µg/mL
CCSSc1nnc(S)s1 [Compound A-4]	35 µg/mL
CCCCSSCc1ccc(OC)cc1 [Compound C-21]	179 µg/mL
CC(C)CSSc1nccn1C [Compound G-2]	125 µg/mL
CCCCSSCc1cccc(OC)c1 [Compound C-20]	61 µg/mL
Cc1nnc(SSCc2ccccc2)s1 [Compound I-3]	9 µg/mL
Cc1ccnc(SSCC(C)C)n1 [Compound G-24]	65 µg/mL
CCSSc1ncccc1C(=O)O [Compound A-23]	35 µg/mL
CCCSSc1nccn1C [Compound B-2]	75 µg/mL
O=C(O)c1cccnc1SSCc1ccccc1 [Compound I-23]	35 µg/mL

Structure (SMILES)	Disulfide inhibition of TR/Trx (IC50 TR/Trx)
COc1ccc(CSSC(C)c2ccccc2)cc1 (centres unmarked) [Compound J-21]	74 µg/mL
CCCCSSc1nnc(S)s1 [Compound C-4]	56 µg/mL
CCCCSSc1ncccc1C(=O)O [Compound C-23]	65 µg/mL
CCCCSSC1CCCC1 [Compound C-27]	51 µg/mL
CC(SSc1nnc(S)s1)c1ccccc1 (centres unmarked) [Compound J-4]	42 µg/mL
Cc1nnc(SSC(C)c2ccccc2)s1 (centres unmarked) [Compound J-3]	11 µg/mL
CC(C)CSSc1nc2ccccc2[nH]1 [Compound G-8]	18 µg/mL
CCCCSSC(C)c1ccccc1 (centres unmarked) [Compound C-22]	194 µg/mL
Cc1ccnc(SSCc2ccccc2)n1 [Compound I-24]	35 µg/mL
CCCCSSc1nc2cc([N+](=O)[O-])ccc2[nH]1 [Compound C-10]	>76 µg/mL
Cn1ccnc1SSCc1ccccc1 [Compound I-2]	100 µg/mL
Cc1ccnc(SSC(C)c2ccccc2)n1 (centres unmarked) [Compound J-24]	67 µg/mL
CC(C)CSSc1nc2ccccc2o1 [Compound G-12]	52 µg/mL
CCCCSSc1nc2ccccc2o1 [Compound C-12]	42 µg/mL
CCSSc1nnc(C)s1 [Compound A-3]	75 µg/mL
CCCCSSc1nnc(C)s1 [Compound C-3]	9 µg/mL
CCC(C)SSCc1ccc(OC)cc1 (centres unmarked) [Compound F-21]	60 µg/mL
CC(SSc1nc(N)nc2[nH]cnc12)c1ccccc1 (centres unmarked) [Compound J-6]	38 µg/mL
CC(C)SSc1nnc(S)s1 [Compound E-4]	35 µg/mL
CC(C)CSSC(C)c1ccccc1 (centres unmarked) [Compound G-22]	201 µg/mL
CCCCSSCc1ccccc1 [Compound C-19]	>189 µg/mL
Cc1ccc2[nH]c(SSCC(C)C)nc2c1 [Compound G-9]	11 µg/mL
CCCCSSc1nc2cc(C)ccc2[nH]1 [Compound C-9]	12 µg/mL
CC(SSc1nccn1C)c1ccccc1 (centres unmarked) [Compound J-2]	12 µg/mL
COc1ccc(CSSCC(C)C)cc1 [Compound G-21]	>203 µg/mL

Test system: EMT6 mouse mammary tumor cells
Test: Cytotoxicity against EMT6 cells in culture (MTT)
Conditions: read-out: Disulfide Cytotoxicity (IC50), Table 5, 48 h exposure

Structure (SMILES)	IC50
CC(O)C(C)SSc1ncnc2[nH]cnc12 (centres unmarked) [Compound M-7]	≥ 180 µM
ClCCCSSc1ncnc2[nH]cnc12 [Compound H-7]	36 µM
Cc1nnc(SSCCCCl)s1 [Compound H-3]	> 180 µM
Cn1ccnc1SSCCCCl [Compound H-2]	> 180 µM
ClCCCSSc1nc2ccccc2[nH]1 [Compound H-8]	82 µM
CC(CSSC(C)C(C)O)C(=O)N1CCCC1C(=O)O (centres unmarked) [Compound M-28]	≥ 180 µM
COc1cccc(CSSCCCCl)c1 [Compound H-20]	91 µM
CC(O)C(C)SSc1ncc[nH]1 (centres unmarked) [Compound M-1]	34 µM
CC(O)C(C)SSc1ncccc1C(=O)O (centres unmarked) [Compound M-23]	96 µM
CC(C)SSc1nc2ccccc2o1 [Compound E-12]	> 180 µM
CC(SSC(C)C(C)O)c1ccccc1 (centres unmarked) [Compound M-22]	≥ 180 µM
O=C(O)c1cccnc1SSCCCCl [Compound H-23]	69 µM
CC(C)SSc1nc(N)nc2[nH]cnc12 [Compound E-6]	42 µM
CC(O)C(C)SSc1nc(N)nc2[nH]cnc12 (centres unmarked) [Compound M-6]	32 µM
Cc1ccc2[nH]c(SSC(C)C)nc2c1 [Compound E-9]	> 180 µM
CC(O)C(C)SSc1nc2ccccc2[nH]1 (centres unmarked) [Compound M-8]	≥ 180 µM
Cc1ccc2[nH]c(SSC(C)C(C)O)nc2c1 (centres unmarked) [Compound M-9]	76 µM
CC(C)SSc1nc2ccccc2[nH]1 [Compound E-8]	66 µM
CC(C)SSCC(C)C(=O)N1CCCC1C(=O)O (centres unmarked) [Compound E-28]	> 180 µM
CC(O)C(C)SSc1nccn1C (centres unmarked) [Compound M-2]	≥ 180 µM
ClCCCSSc1ccccc1 [Compound H-13]	> 180 µM
CCC(C)SSCC(C)C(=O)N1CCCC1C(=O)O (centres unmarked) [Compound F-28]	> 180 µM
O=C(O)CCSSc1nc2ccccc2[nH]1 [Compound N-8]	≥ 180 µM
CC1CCC(C(C)(C)SSCCC(=O)O)C(=O)C1 (centres unmarked) [Compound N-26]	≥ 180 µM
Cc1nnc(SSC(C)C(C)O)s1 (centres unmarked) [Compound M-3]	≥ 180 µM
CCC(C)SSC1=NCCS1 (centres unmarked) [Compound F-25]	31 µM
CC(O)C(C)SSc1nc2cc([N+](=O)[O-])ccc2[nH]1 (centres unmarked) [Compound M-10]	34 µM
ClCCCSSc1ncc[nH]1 [Compound H-1]	> 180 µM
